From PubChem BioAssay (NCI)
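Values below derive from 48-hour exposures of cells grown in 96-well plates, with endpoints linearly interpolated between the two concentrations bracketing the appropriate inhibition level. TGI: total growth inhibition.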

Columns and labels:
Experiment in all cases: NCI tumour cell line growth inhibition, 48 h
[1] = system: UO-31 renal
[2] = system: M14 melanoma
[3] = system: COLO 205 colon
[4] = system: K-562 leukemia
[5] = system: HOP-62 NSCLC
[6] = system: LOX IMVI melanoma
[7] = system: KM12 colon
[8] = system: CCRF-CEM leukemia
[9] = system: A498 renal
[10] = system: IGROV1 ovarian
[11] = system: HOP-92 NSCLC
[12] = system: MDA-MB-231 breast
[13] = system: 786-0 renal
[14] = system: ACHN renal
[15] = system: SF-539 CNS
[16] = system: NCI-H522 lung
[17] = system: SF-268 CNS
[18] = system: SNB-75 CNS
[19] = system: HS 578T breast
[20] = system: HCT-116 colon
[21] = system: T-47D breast
[22] = system: SK-OV-3 ovarian
[23] = system: NCI-H23 lung
[24] = system: NCI-H460 lung
[25] = system: SW-620 colon
[26] = system: NCI-H226 lung
[27] = system: OVCAR-8 ovarian
[28] = system: SF-295 CNS
[29] = system: HT29 colon
[30] = system: NCI/ADR-RES ovarian
[31] = system: MCF7 breast
[32] = system: DU-145 prostate
[33] = system: U251 CNS
[34] = system: UACC-62 melanoma
[35] = system: A549 NSCLC
[36] = system: RPMI-8226 leukemia
[37] = system: HCC-2998 colon
[38] = system: MDA-N
[39] = system: OVCAR-4 ovarian
[40] = system: SN12C renal
[41] = system: SNB-19 CNS
[42] = system: MDA-MB-435
[43] = system: EKVX NSCLC
[44] = system: HL-60(TB) leukemia
[45] = system: SK-MEL-5 melanoma
[46] = system: TK-10 renal
[47] = system: PC-3 prostate
[48] = system: MOLT-4 leukemia
[49] = system: OVCAR-3 ovarian
[50] = system: UACC-257 melanoma
[51] = system: OVCAR-5 ovarian
[52] = system: SK-MEL-28 melanoma
[53] = system: RXF 393 renal
[54] = system: HCT-15 colon

Measured: TGI

Cc1cc2c(c(C)c1O)C(C)(C)CN2C(=O)C(C)(C)C
78.5 µM: [11]
41.2 µM: [30]
86.9 µM: [53]
89.2 µM: [18]
28.3 µM: [49]
> 100 µM: all other assays above
